This note sets out measurements from ChEMBL document CHEMBL1148186, “Structure of Benthophoenin, a New Free Radical Scavenger Produced by Streptomyces prunicolor” (J Nat Prod, 1993).

Values after ≈ are worked out from the molar mass of the structure shown.

The nature of test [1]: Antioxidant activity assessed as inhibition of AAPH-induced rat erythrocytes hemolysis. The test is classed as functional, cell-based. The note with it: erythrocyte.
A short description of test [2]: Antioxidant activity assessed as free radical scavenging activity. In kind it is functional.

One may read the IC50 as the concentration needed to halve the response being measured.

Regarding `CC(C)=CCC/C(C)=C/CN1c2cc(C(=O)c3ccccc3)ccc2Nc2c(C(=O)O)cc(C(=O)c3ccccc3)cc21` [BENTHOPHOENIN], the values for the IC50 in test [1] and in test [2] were 0.8 µg/mL (≈ 1.4 µM) and 0.15 µg/mL (≈ 0.263 µM), respectively. Consider VITAMIN E, for which, in test [2], the IC50 turned out to be 10.8 µg/mL.
